Experimental findings from patent US20160100585A1, “Pesticidal Mixtures” (priority 2012, published 2016) are described below.

Format in all cases: in vivo
The subject of one assay is Gaeumannomyces graminis. Kind of assay: Action against Gaeumannomyces graminis in wheat using pot trials (Use example FG-7). The settings on record: wheat cv. JB Asano, pots, 14 days at 20° C; % of the untreated control (infection 96%); pyraclostrobin 2.5 g ai/100 kg seeds as seed treatment, B. pumilus INR7 10 ml broth per seed as drench. As for the experimental part:
Pyraclostrobin was applied as commercial seed treatment formulation […], Ludwigshafen, Germany). The application of the pyraclostrobin was done as seed treatment and the seeds were treated in the BASF Seed Solutions Technology Center (SSTC) Limburgerhof using a batch lab treater. The respective amount of seeds was placed in the bowl of the treater and the slurry was dosed on the spinning disk. The B. pumilus INR7 were grown in shake flasks and used as fermentation broth with of at least 1×10^12 CFU per ml. This broth was added as a drench solution directly adjacent to the seeds with 10 ml for each seed kernel which makes 50 ml per pot. For the assessment, the plants were evaluated according to a 2 class evaluation (healthy, diseased). Those figures were converted into efficacies in % of the untreated control and the efficacy (E) was calculated as follows using Abbot's formula. Experimental setup was identical to Use example FG-6 unless described below. For the infection, rye kernels inoculated with Gaeumannomyces graminis were used. The trial was sown in 8 cm pots and a mix of peat substrate and sand (ratio 1:4) was used as a substrate. The pots were filled with the substrate and the rye kernels inoculated with Gaeumannomyces graminis were placed directly adjacent to the wheat seeds. […] JB Asano) were sown at a sowing depth of 1.5 cm and then covered with substrate. […]

Another assay has as its system wheat. Kind of assay: Improvement of plant height in wheat, pot trials (Use example H-2). The settings on record: wheat cv. JB Asano, pots, 14 days at 20° C; untreated control = 100% (13.9 cm); pyraclostrobin 5 g ai/100 kg seeds as seed treatment, B. pumilus INR7 10 ml broth per seed as drench. As to the method: Pyraclostrobin was applied as commercial seed treatment formulation STAMINA (200 g/L a.i., BASF SE, Ludwigshafen, Germany).
In pot trials in Limburgerhof greenhouses, Bacillus pumilis INR7 was tested in wheat and maize as solo products and in combination with pyraclostrobin to show effects on plant height. The application of the pyraclostrobin was done as seed treatment and the seeds were treated in the BASF Seed Solutions Technology Center (SSTC) Limburgerhof using a batch lab treater. The respective amount of seeds was placed in the bowl of the treater and the slurry was dosed on the spinning disk.
The bacterials were grown in shake flasks and used as fermentation broth with a CFU of at least 1×10^12 per ml. This broth was added as a drench solution directly adjacent to the seeds with 10 ml for each seed kernel which makes 50 ml per pot.
The trial was sown in 8 cm pots and a mix of peat substrate and sand (ratio 1:4) was used as a substrate. […]
For the assessment, the plant height from all plants was measured in cm. […]
The expected relative plant height of active compound combinations were determined using Colby's formula (Colby, S. R. “Calculating synergistic and antagonistic responses of herbicide combinations”, Weeds 15, pp. 20-22, 1967) and compared with the observed efficacies. […]

The next assay relates to Sclerotinia sclerotiorum. Kind of assay: Action against Sclerotinia sclerotiorum in soybean using pot trials (Use example FG-6). The settings on record: soy bean cv. Goriziana, pots, 14 days at 20° C; % of the untreated control (infection level 96%); pyraclostrobin 2.5 g ai/100 kg seeds as seed treatment, B. pumilus INR7 10 ml broth per seed as drench. As to the method: Pyraclostrobin was applied as commercial seed treatment formulation […], Ludwigshafen, Germany). The application of the pyraclostrobin was done as seed treatment and the seeds were treated in the BASF Seed Solutions Technology Center (SSTC) Limburgerhof using a batch lab treater. The respective amount of seeds was placed in the bowl of the treater and the slurry was dosed on the spinning disk. The B. pumilus INR7 were grown in shake flasks and used as fermentation broth with of at least 1×10^12 CFU per ml. This broth was added as a drench solution directly adjacent to the seeds with 10 ml for each seed kernel which makes 50 ml per pot. For the infection, rye kernels inoculated with Sclerotinia sclerotiorum were used. The trial was sown in 8 cm pots and as a substrate a mix of peat substrate and sand in the ratio 1:4 was used. The pots were filled with the substrate and the rye kernels inoculated with Sclerotinia sclerotiorum were placed directly adjacent to the seeds. In each pot 5 soy bean seeds (cv. Goriziana) were sown at a sowing depth of 2 cm, then covered with substrate. For each treatment 5 replications were made. […] For the assessment, the plants were evaluated according to a 2 class evaluation (healthy, diseased). Those figures were converted into efficacies in % of the untreated control and the efficacy (E) was calculated as follows using Abbot's formula.

Turning to Pyraclostrobin, the Observed efficacy came out at 5.0% in the assay with Gaeumannomyces graminis and 16.7% in the assay on Sclerotinia sclerotiorum. Also, in the assay with wheat, the “Observed relative plant height” value is on record as 99.4%.
